Experimental findings from patent US20090076012A1, “Modulation of pathogenicity” (priority 2002, published 2009) are described below.

A value given as a limit tells only on which side of the number the result lay.

The assay deals with bioluminescent sensor strain Escherichia coli MT102 (pSB403). Put plainly: Biosensor assay: quorum sensing inhibition, bioluminescence of the sensor strain. The note with it: 3oxo-C6-HSL 100 nM, bioluminescence after 4 hours at 30° C. The class given is cell-based. How it is done:
Quorum sensing inhibition of the compounds was investigated with the aid of the bioluminescent sensor strain Escherichia coli MT102 (pSB403) (Winson et al., FEMS Microbiol. Lett. 163:185-92, 1998). Plasmid pSB403 contains the Photobacterium fischeri luxR gene together with the […] promoter region as a transcriptional fusion to the bioluminescence genes luxCDABE of Photorhabdus luminescence.
Inhibitory studies were conducted in a microtitre dish assay as follows: the E. coli sensor strain grown over night in LB medium (Sambrook et al., Molecular Cloning: A Laboratory Manual. 2nd Edn. Cold Spring Harbor Laboratory, New York, 1989) was diluted 1:4 and grown for another 1 hour at 30° C. After addition of 3oxo-C6-HSL (final concentration 100 nM) 100 μl of an exponential culture suspension were filled in the wells of a FluoroNunc Polysorp microtitre dish. The test compounds were added to the culture in different concentrations and bioluminescence was measured after 4 hours of incubation at 30° C. with a Lamda Fluoro 320 Plus reader (Bio-Tek Instruments). Inhibitor-mediated reduction of light emission was correlated with the value obtained without addition of the test compounds. IC50 values (concentration of inhibitor required for 50% inhibition of the signal compared to the signal without inhibitor) were determined by using a fitting function after drawing a graph of the activities of eight different inhibitor concentrations.

On to `COC(=O)c1ccsc1NC(=O)c1cnc(Cl)nc1C(F)(F)F` [Compound 4, 2-[(2-Chloro-4-trifluoro-methyl-pyrimidine-5-carbonyl)-amino]-thiophene-3-carboxylic acid methyl ester], for which the IC50 (Escherichia coli, 4 h) is over 100 µM.

Molecule `O=C(NNC(=O)c1sc2ccccc2c1Cl)c1cccs1` [Compound 60, 3-Chloro-benzo[b]thiophene-2-carboxylic acid N′-(thiophene-2-carbonyl)-hydrazide] showed an IC50 (Escherichia coli, 4 h) of 1 to 50 µM.

For `O=C(NNC(=O)c1ccc(Br)s1)Nc1c(F)cccc1F` [Compound 110, 1-(5-Bromo-thiophene-2-carbonyl)-4-(2,6-difluoro-phenyl)-semicarbazide], the IC50 (Escherichia coli, 4 h) is over 100 µM.

Consider `O=C(NNC(=O)c1ccc(Br)s1)Nc1ccccc1CCl` [Compound 107, 1-(5-Bromo-thiophene-2-carbonyl)-4-(2-chloromethyl-phenyl)-semicarbazide], for which the IC50 (Escherichia coli, 4 h) is 1 to 50 µM.

In turn, `O=C(NNC(=O)c1cccs1)c1ccc(OC(F)(F)F)cc1` [Compound 29, 4-Trifluoromethoxy-benzoic acid N′-(thiophene-2-carbonyl)-hydrazide] had an IC50 (Escherichia coli, 4 h) of over 100 µM.

For the molecule `Cc1cc(C(=O)NNC(=O)c2cccs2)n(C(C)(C)C)n1` [Compound 68, Thiophene-2-carboxylic acid N′-(2-tert-butyl-5-methyl-2H-pyrazole-3-carbonyl)-hydrazide], for the setting “Escherichia coli, 4 h”, the IC50 was over 100 µM.

`CCCCCCC(=O)Nc1cc(-c2cccs2)nn1C` [Compound 19, Heptanoic acid (2-methyl-5-thiophen-2-yl-2H-pyrazol-3-yl)-amide]: the IC50 (Escherichia coli, 4 h) is 1 to 50 µM.

For `COc1c(C(=O)NNC(=O)c2ccc(C)s2)csc1Br` [Compound 53, 5-Bromo-4-methoxy-thiophene-3-carboxylic acid N′-(5-methyl-thiophene-2-carbonyl)-hydrazide], where the note is “Escherichia coli, 4 h”, the IC50 fell in the range of 1 to 50 µM.

In turn, `CCCCCCC(=O)CC(=O)Nc1cc(C)ns1` [Compound 125, 3-Oxo-nonanoic acid (3-methyl-isothiazol-5-yl)-amide] yielded an IC50 (Escherichia coli, 4 h) of over 100 µM.

For the setting “Escherichia coli, 4 h”, `O=C(NNc1nccc(C(F)(F)F)n1)c1cccs1` [Compound 25, Thiophene-2carboxylic acid N′-(4-trifluoromethyl-pyrimidin-2-yl)-hydrazide] came in with an IC50 of 1 to 50 µM.

For the molecule `CCn1nc(C)c(Br)c1C(=O)NNC(=O)c1cc(Br)c(Br)s1` [Compound 74, 4-Bromo-2-ethyl-5-methyl-2H-pyrazole-3-carboxylic acid N′-(4,5-di-bromo-thiophene-2-carbonyl)-hydrazide], where the note is “Escherichia coli, 4 h”, the IC50 was over 100 µM.

The molecule `CCn1nc(C)c(Br)c1C(=O)NNC(=O)c1ccc(Cl)s1` [Compound 67, 4-Bromo-2ethyl-5-methyl-2H-pyrazole-3-carboxylic acid N′-(5-chloro-thiophene-2-carbonyl)-hydrazide] registered an IC50 of over 100 µM.

With `CCCCCCCC(=O)NNC(=O)c1cccnc1Cl` [Compound 94, 2-Chloro-nicotinic acid N′-octanoyl-hydrazide], for the setting “Escherichia coli, 4 h”, the IC50 fell in the range of 1 to 50 µM.

Consider `Cn1nc(-c2cccs2)cc1NC(=O)c1cccc(Cl)c1` [Compound 15, 3-Chloro-N-(2-methyl-5-thiophen-2-yl-2H-pyrazol-3-yl)-benzamide], for which the IC50 (Escherichia coli, 4 h) lay in the range of 1 to 50 µM.

With `O=C(NNC(=O)c1ccc(Cl)s1)Nc1ccccc1CCl` [Compound 108, 4(2-Chloro-methyl-phenyl)-1-(5-chloro-thiophene-2-carbonyl)-semicarbazide], the IC50 (Escherichia coli, 4 h) lay within 1 to 50 µM.

`CCCCCCCCCC(=O)CC(=O)Nc1ccnn1C` [Compound 115, 3-Oxo-dodecanoic acid (2-methyl-2H-pyrazol-3-yl)-amide]: the IC50 (Escherichia coli, 4 h) is over 100 µM.

`COc1ccc(NC(=O)c2sccc2Br)cn1` [Compound 2, 3-Bromo-thiophene-2-carboxylic acid (6-methoxy-pyridin-3-yl)-amide]: the IC50 (Escherichia coli, 4 h) lay within 1 to 50 µM.

Consider `Cc1cc(C(=O)Nc2cccnc2)cc(Cl)n1` [Compound 11, 2-Chloro-6-methyl-N-pyridin-3-yl-iso-nicotinamide], for which, under “Escherichia coli, 4 h”, the IC50 was 1 to 50 µM.

`O=C(NNC(=O)c1ccc(Br)s1)Nc1ccc(F)cc1C(F)(F)F` [Compound 102, 1-(5-Bromo-thiophene-2-carbonyl)-4-(4-fluoro-2-trifluoromethyl-phenyl)-semicarbazide] displayed an IC50 (Escherichia coli, 4 h) of over 100 µM.

Molecule `O=C(NNC(=O)c1cc(Br)c(Br)s1)Nc1ccc(Cl)c(C(F)(F)F)c1` [Compound 103, 4-(4-Chloro-3-trifluoromethyl-phenyl)-1-(4,5-dibromo-thiophene-2-carbonyl)-semicarbazide] registered an IC50 (Escherichia coli, 4 h) of 50 to 100 µM.

For `Cc1cc(C(=O)NNC(=O)c2cccs2)n(C)n1` [Compound 66, 2,5-Dimethyl-2H-pyrazole-3-carboxylic acid N′-(thiophene-2-carbonyl)-hydrazide], the IC50 (Escherichia coli, 4 h) was over 100 µM.

`CCCCCCCCCC(=O)CC(=O)Nc1oc(C)c(C)c1C#N` [Compound 137, 3-Oxododecanoic acid (3-cyano-4,5-dimethyl-furan-2-yl)-amide] came in with an IC50 (Escherichia coli, 4 h) of over 100 µM.

Molecule `CCOc1ccsc1C(=O)NNC(=O)c1ccco1` [Compound 37, Furan-2-carboxylic acid N′-(3-ethoxy-thiophene-2-carbonyl)-hydrazide] had an IC50 (Escherichia coli, 4 h) of 50 to 100 µM.

In turn, `CCCCCCC(=O)CC(=O)Nc1nccs1` [Compound 127, 3-Oxo-nonanoic acid thiazol-2-ylamide] returned an IC50 (Escherichia coli, 4 h) of over 100 µM.

For `CCCCCCC(=O)CC(=O)Nn1cccn1` [Compound 120, 3-Oxo-nonanoic acid pyrazol-1-ylamide], the IC50 (Escherichia coli, 4 h) was over 100 µM.

With `Cc1ccc(C(=O)NNC(=O)CCCCCBr)s1` [Compound 82, 5-Methyl-thiophene-2-carboxylic acid N′-(6-bromohexanoyl)-hydrazide], the IC50 (Escherichia coli, 4 h) was in the range of 1 to 50 µM.

`O=C(NNC(=O)c1sc2ccccc2c1Cl)c1sccc1Br` [Compound 61, 3-Chloro-benzo[b]thiophene-2-carboxylic acid N′-(3-bromo-thiophene-2-carbonyl)-hydrazide] yielded an IC50 (Escherichia coli, 4 h) of 50 to 100 µM.

With `CCCCCCC(=O)CC(=O)Nc1oc(C)c(C)c1C#N` [Compound 136, 3-Oxo-nonanoic acid (3-cyano-4,5-dimethyl-furan-2-yl)-amide], the IC50 (Escherichia coli, 4 h) is over 100 µM.

Molecule `CCOC(=O)CC(=O)NNC(=O)c1sccc1Br` [Compound 95] returned an IC50 (Escherichia coli, 4 h) of 1 to 50 µM.

`CCCCCCC(=O)NNC(=O)c1ccc(Br)s1` [Compound 84, 5-Bromo-thiophene-2-carboxylic acid N′-heptanoyl-hydrazide] showed an IC50 (Escherichia coli, 4 h) of 1 to 50 µM.

As for `CCCCCCC(=O)NNC(=O)c1ccco1` [Compound 89, Furan-2-carboxylic acid N′-heptanoyl-hydrazide], the IC50 (Escherichia coli, 4 h) lay within 1 to 50 µM.

Under “Escherichia coli, 4 h”, `O=C(NNC(=O)c1sccc1Br)c1ccc(Cl)s1` [Compound 48] had an IC50 of 50 to 100 µM.

Take `COc1c(C(=O)NNC(=O)c2ccco2)csc1Cl` [Compound 38, Furan-2-carboxylic acid N′-(5-chloro-4-methoxy-thiophene-3-carbonyl)-hydrazide]: the IC50 (Escherichia coli, 4 h) lay within 1 to 50 µM.

`O=C(NNC(=O)c1cccs1)c1ccsc1` [Compound 47, Thiophene-3-carboxylic acid N′-(thiophene-2-carbonyl)-hydrazide] showed a half-maximal inhibitory concentration (IC50) (Escherichia coli, 4 h) of 1 to 50 µM.

Consider `CCCCCCC(=O)CC(=O)Nc1ccnn1C` [Compound 114, 3-Oxo-nonanoic acid (2methyl-2H-pyrazol-3-yl)-amide], for which the IC50 (Escherichia coli, 4 h) is over 100 µM.

For the setting “Escherichia coli, 4 h”, `O=C(NNS(=O)(=O)c1ccc(Cl)s1)c1cccs1` [Compound 97, N′-(5-Chloro-thiophen-2-sulfonyl)-thiophene-2-carboxylic acid hydrazide] came in with an IC50 of 1 to 50 µM.

On to `Cn1nccc1NC(=O)c1cnc(Cl)nc1C(F)(F)F` [Compound 1, 2-Chloro-4-trifluoromethyl-pyrimidine-5-carboxylic acid (2-methyl-2H-pyrazol-3-yl)-amide], for which the IC50 (Escherichia coli, 4 h) lay within 1 to 50 µM.

Under “Escherichia coli, 4 h”, `CCn1nc(C)c(Br)c1C(=O)Nc1ccnn1C` [Compound 12, 4-Bromo-2-ethyl-5-methyl-2H-pyrazole-3-carboxylic acid (2-methyl-2H-pyrazol-3-yl)-aide] returned an IC50 of 1 to 50 µM.

Take `CCCCNC(=S)NNC(=O)c1cccs1` [Compound 100, 4-Butyl-1-(thiophene-2-carbonyl)-thiosemicarbazide]: the IC50 (Escherichia coli, 4 h) is 1 to 50 µM.

Take `COc1c(C(=O)NNC(=O)c2cccs2)csc1Cl` [Compound 50, 5-Chloro-4-methoxy-thiophene-3-carboxylic acid N′-(thiophene-2-carbonyl)-hydrazide]: for the setting “Escherichia coli, 4 h”, the IC50 was in the range of 50 to 100 µM.

`O=C(CCC1CCCC1)NNC(=O)c1ccco1` [Compound 90, Furan-2-carboxylic acid N′-(3-cyclopentyl-propionyl)-hydrazide] had an IC50 (Escherichia coli, 4 h) of 1 to 50 µM.

With `O=C(NNC(=O)c1cccs1)c1ccco1` [Compound 35, Furan-2-carboxylic acid N′-(thiophene-2-carbonyl)-hydrazide], the IC50 (Escherichia coli, 4 h) was 50 to 100 µM.

Regarding `COc1c(C(=O)NNC(=O)c2cccs2)csc1Br` [Compound 42, Thiophene-2-carboxylic acid N′-(5-bromo-4-methoxy-thiophene-3-carbonyl)-hydrazide], the IC50 (Escherichia coli, 4 h) lay in the range of 1 to 50 µM.

The molecule `O=C(NNC(=O)c1sccc1Br)c1ccco1` [Compound 39, Furan-2-carboxylic acid N′-(3-bromo-thiophene-2-carbonyl)-hydrazide] returned an IC50 (Escherichia coli, 4 h) of 1 to 50 µM.

The IC50 is the concentration at which inhibition is half-maximal.
